“And” between values parts separate entries of the source, which are not always exact repeats. Identical values can stand only once. Inconclusive results and toxic doses are left out.
Tested on: CD2F1 mice, L1210 leukemia ip, survival T/C
Experiment: NCI In Vivo Anticancer Drug Screen. Data for tumor model L1210 Leukemia (intraperitoneal) in CD2F1 (CDF1) mice
Conditions: higher = longer survival
In short: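 Vehicle-treated tumor-bearing mice served as controls (C) for compound-treated mice (T). Reported figure is T divided by C.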

[1] = endpoint: mean survival time, dose: 100.0 mg/kg/injection, schedule: Q01DX001 (ip), vehicle: saline
[2] = endpoint: mean survival time, dose: 200.0 mg/kg/injection, schedule: Q01DX001 (ip), vehicle: saline
[3] = endpoint: mean survival time, dose: 400.0 mg/kg/injection, schedule: Q01DX001 (ip), vehicle: saline
[4] = endpoint: mean survival time, dose: 100.0 mg/kg/injection, schedule: Q04DX003 (ip), vehicle: saline with Tween-80
[5] = endpoint: mean survival time, dose: 200.0 mg/kg/injection, schedule: Q04DX003 (ip), vehicle: saline with Tween-80
[6] = endpoint: mean survival time, dose: 400.0 mg/kg/injection, schedule: Q04DX003 (ip), vehicle: saline with Tween-80
[7] = endpoint: mean survival time, dose: 100.0 mg/kg/injection, schedule: Q01DX009 (ip), vehicle: saline with Tween-80
[8] = endpoint: mean survival time, dose: 200.0 mg/kg/injection, schedule: Q01DX009 (ip), vehicle: saline with Tween-80
[9] = endpoint: mean survival time, dose: 400.0 mg/kg/injection, schedule: Q01DX009 (ip), vehicle: saline with Tween-80
[10] = endpoint: mean survival time, dose: 25.0 mg/kg/injection, schedule: Q01DX009 (ip), vehicle: saline
[11] = endpoint: mean survival time, dose: 50.0 mg/kg/injection, schedule: Q01DX009 (ip), vehicle: saline

COC(=O)C1N=C1c1ccccc1.COC(=O)C1N=C1c1ccccc1.[Cl][Pd][Cl] (stereo not given)
T/C (endpoint: mean survival time, dose: 3.13 mg/kg/injection, schedule: Q04DX003 (ip), vehicle: distilled water + Tween-80): 95 % of control | T/C (endpoint: mean survival time, dose: 6.25 mg/kg/injection, schedule: Q04DX003 (ip), vehicle: distilled water + Tween-80): 103 % of control | T/C (endpoint: mean survival time, dose: 12.5 mg/kg/injection, schedule: Q04DX003 (ip), vehicle: distilled water + Tween-80): 91 % of control | T/C (endpoint: mean survival time, dose: 25.0 mg/kg/injection, schedule: Q04DX003 (ip), vehicle: distilled water + Tween-80): 103 % of control | T/C (endpoint: mean survival time, dose: 50.0 mg/kg/injection, schedule: Q04DX003 (ip), vehicle: distilled water + Tween-80): 101 % of control | T/C (endpoint: mean survival time, dose: 100.0 mg/kg/injection, schedule: Q04DX003 (ip), vehicle: distilled water + Tween-80): 101 % of control | T/C (endpoint: mean survival time, dose: 200.0 mg/kg/injection, schedule: Q04DX003 (ip), vehicle: distilled water + Tween-80): 103 % of control

CC1OC(O)C(O)C(O)C1O (stereo not given)
T/C [1]: 102 % of control | T/C [2]: 100 % of control | T/C [3]: 100 % of control

O[C@H](CN1CC1)[C@@H](O)CN1CC1
T/C (endpoint: mean survival time, dose: 0.25 mg/kg/injection, schedule: Q01DX007 (ip), vehicle: saline): 150 % of control | T/C (endpoint: mean survival time, dose: 0.25 mg/kg/injection, schedule: Q01DX009 (ip), vehicle: saline): 170 % of control and 177 % of control and 178 % of control | T/C (endpoint: mean survival time, dose: 0.5 mg/kg/injection, schedule: Q01DX007 (ip), vehicle: saline): 192 % of control | T/C (endpoint: mean survival time, dose: 0.5 mg/kg/injection, schedule: Q01DX009 (ip), vehicle: saline): 165 % of control and 197 % of control and 205 % of control | T/C (endpoint: mean survival time, dose: 0.5 mg/kg/injection, schedule: Q03DX003 (ip), vehicle: saline): 166 % of control | T/C (endpoint: mean survival time, dose: 0.5 mg/kg/injection, schedule: Q04DX003 (ip), vehicle: saline): 164 % of control | T/C (endpoint: mean survival time, dose: 1.0 mg/kg/injection, schedule: Q01DX007 (ip), vehicle: saline): 94 % of control | T/C (endpoint: mean survival time, dose: 1.0 mg/kg/injection, schedule: Q01DX009 (ip), vehicle: saline): 116 % of control and 95 % of control | T/C (endpoint: mean survival time, dose: 1.0 mg/kg/injection, schedule: Q03DX003 (ip), vehicle: saline): 202 % of control | T/C (endpoint: mean survival time, dose: 1.0 mg/kg/injection, schedule: Q04DX003 (ip), vehicle: saline): 184 % of control

CCOc1ccc(/C=C2N=C(/C=C/c3ccccc3)OC\2=O)cc1
T/C (endpoint: mean survival time, dose: 100.0 mg/kg/injection, schedule: Q04DX002 (ip), vehicle: saline with Tween-80): 91 % of control | T/C (endpoint: mean survival time, dose: 200.0 mg/kg/injection, schedule: Q04DX002 (ip), vehicle: saline with Tween-80): 95 % of control | T/C (endpoint: mean survival time, dose: 400.0 mg/kg/injection, schedule: Q04DX002 (ip), vehicle: saline with Tween-80): 91 % of control

O=c1oc(-c2ccccc2Cl)nc2cc(Cl)ccc12
T/C [4]: 101 % of control | T/C [5]: 94 % of control

CC(=O)CC(C)=O.CC(=O)CC(C)=O.[Pd]
T/C (endpoint: mean survival time, dose: 6.25 mg/kg/injection, schedule: Q04DX002 (ip), vehicle: saline with Tween-80): 96 % of control | T/C (endpoint: mean survival time, dose: 12.5 mg/kg/injection, schedule: Q04DX002 (ip), vehicle: saline with Tween-80): 87 % of control

CC(=O)c1cc(-c2ccc(Cl)cc2)nc2c(Cl)cc(Cl)cc12
T/C [1]: 89 % of control | T/C [2]: 87 % of control | T/C [3]: 91 % of control

Cc1ccc(S(=O)(=O)CN(O)C(N)=O)cc1
T/C (endpoint: mean survival time, dose: 7.5 mg/kg/injection, schedule: Q01DX009 (ip), vehicle: saline with Tween-80): 93 % of control | T/C (endpoint: mean survival time, dose: 15.0 mg/kg/injection, schedule: Q01DX009 (ip), vehicle: saline with Tween-80): 102 % of control | T/C (endpoint: mean survival time, dose: 30.0 mg/kg/injection, schedule: Q01DX009 (ip), vehicle: saline with Tween-80): 93 % of control | T/C (endpoint: mean survival time, dose: 60.0 mg/kg/injection, schedule: Q01DX009 (ip), vehicle: saline with Tween-80): 107 % of control | T/C (endpoint: mean survival time, dose: 120.0 mg/kg/injection, schedule: Q01DX009 (ip), vehicle: saline with Tween-80): 105 % of control | T/C (endpoint: mean survival time, dose: 240.0 mg/kg/injection, schedule: Q01DX009 (ip), vehicle: saline with Tween-80): 115 % of control

NC(=O)OCCc1ccccc1
T/C (endpoint: mean survival time, dose: 100.0 mg/kg/injection, schedule: Q04DX003 (ip), vehicle: Klucel (hydroxypropylcellulose) (HPC)): 94 % of control | T/C (endpoint: mean survival time, dose: 200.0 mg/kg/injection, schedule: Q04DX003 (ip), vehicle: Klucel (hydroxypropylcellulose) (HPC)): 102 % of control

COc1cc(N)ccc1NC(=O)c1ccccc1
T/C (endpoint: mean survival time, dose: 6.25 mg/kg/injection, schedule: Q01DX009 (ip), vehicle: saline with Tween-80): 94 % of control | T/C (endpoint: mean survival time, dose: 12.5 mg/kg/injection, schedule: Q01DX009 (ip), vehicle: saline with Tween-80): 94 % of control and 100 % of control | T/C (endpoint: mean survival time, dose: 25.0 mg/kg/injection, schedule: Q01DX009 (ip), vehicle: saline with Tween-80): 93 % of control and 105 % of control

CC(C)(C)OC(=O)NCCCC(N)C(=O)O (stereo not given)
T/C [4]: 92 % of control | T/C [5]: 94 % of control | T/C [6]: 94 % of control

CS(=O)(=O)c1cccnn1
T/C (endpoint: mean survival time, dose: 100.0 mg/kg/injection, schedule: Q04DX003 (ip), vehicle: saline sonified): 93 % of control | T/C (endpoint: mean survival time, dose: 200.0 mg/kg/injection, schedule: Q04DX003 (ip), vehicle: saline sonified): 98 % of control | T/C (endpoint: mean survival time, dose: 400.0 mg/kg/injection, schedule: Q04DX003 (ip), vehicle: saline sonified): 96 % of control

O=C(OC1COC(OC(=O)c2ccccc2)C(OC(=O)c2ccccc2)C1OC(=O)c1ccccc1)c1ccccc1 (stereo not given)
T/C [7]: 97 % of control | T/C [4]: 101 % of control | T/C [8]: 95 % of control | T/C [5]: 86 % of control | T/C [9]: 97 % of control | T/C [6]: 95 % of control

O=CCC1CCCCC1
T/C (endpoint: mean survival time, dose: 50.0 mg/kg/injection, schedule: Q01DX009 (ip), vehicle: saline with Tween-80): 105 % of control | T/C [7]: 94 % of control | T/C [8]: 102 % of control

Cc1cc(C)c(N)c(Br)c1C
T/C [7]: 102 % of control | T/C [4]: 103 % of control | T/C [8]: 97 % of control | T/C [5]: 100 % of control | T/C [9]: 104 % of control | T/C [6]: 101 % of control

Clc1ccc(CSC2=NCCN2)cc1
T/C (endpoint: mean survival time, dose: 12.5 mg/kg/injection, schedule: Q01DX009 (ip), vehicle: saline): 87 % of control | T/C [10]: 87 % of control | T/C [11]: 90 % of control

N#C/C(=C\c1cccc2ccccc12)c1ccccc1
T/C [7]: 100 % of control | T/C [4]: 93 % of control | T/C [8]: 96 % of control | T/C [5]: 98 % of control | T/C [9]: 97 % of control | T/C [6]: 102 % of control

COC(=O)C(C(=O)OC(C)C)C(=O)OC(C)C
T/C (endpoint: mean survival time, dose: 50.0 mg/kg/injection, schedule: Q01DX001 (ip), vehicle: Klucel (hydroxypropylcellulose) (HPC)): 105 % of control | T/C (endpoint: mean survival time, dose: 100.0 mg/kg/injection, schedule: Q01DX001 (ip), vehicle: Klucel (hydroxypropylcellulose) (HPC)): 96 % of control | T/C (endpoint: mean survival time, dose: 200.0 mg/kg/injection, schedule: Q01DX001 (ip), vehicle: Klucel (hydroxypropylcellulose) (HPC)): 99 % of control

c1cc[n+](Cc2nc3ccccc3[nH]2)cc1
T/C [10]: 97 % of control and 100 % of control | T/C (endpoint: mean survival time, dose: 25.0 mg/kg/injection, schedule: Q04DX003 (ip), vehicle: saline): 103 % of control and 100 % of control | T/C [11]: 100 % of control | T/C (endpoint: mean survival time, dose: 50.0 mg/kg/injection, schedule: Q04DX003 (ip), vehicle: saline): 100 % of control and 106 % of control | T/C (endpoint: mean survival time, dose: 100.0 mg/kg/injection, schedule: Q01DX009 (ip), vehicle: saline): 101 % of control and 97 % of control | T/C (endpoint: mean survival time, dose: 100.0 mg/kg/injection, schedule: Q04DX003 (ip), vehicle: saline): 97 % of control and 103 % of control

N/C(=C\C(=O)c1ccccc1)c1ccccc1
T/C [4]: 94 % of control | T/C [5]: 107 % of control | T/C [6]: 100 % of control

COc1cc(Cl)ccc1NC(=O)Oc1c(OC)cccc1OC
T/C [7]: 100 % of control | T/C [8]: 106 % of control | T/C [9]: 103 % of control

O=C(c1ccccc1)C(O)(CC(c1ccccc1)[P+](c1ccccc1)(c1ccccc1)c1ccccc1)c1ccccc1 (stereo not given)
T/C (endpoint: mean survival time, dose: 6.25 mg/kg/injection, schedule: Q01DX001 (ip), vehicle: saline with Tween-80): 103 % of control | T/C (endpoint: mean survival time, dose: 12.5 mg/kg/injection, schedule: Q01DX001 (ip), vehicle: saline with Tween-80): 96 % of control | T/C (endpoint: mean survival time, dose: 25.0 mg/kg/injection, schedule: Q01DX001 (ip), vehicle: saline with Tween-80): 100 % of control

O=C1N[C@H]2[C@H](O)[C@H](O)[C@@H](O)[C@H](O)[C@@H]2c2cc3c(c(O)c21)OCO3
T/C (endpoint: median survival time, dose: 0.38 mg/kg/injection, schedule: Q01DX009 (ip), vehicle: saline + alcohol): 120 % of control | T/C (endpoint: median survival time, dose: 0.75 mg/kg/injection, schedule: Q01DX009 (ip), vehicle: saline + alcohol): 122 % of control | T/C (endpoint: median survival time, dose: 1.5 mg/kg/injection, schedule: Q01DX009 (ip), vehicle: saline + alcohol): 121 % of control

O=C(Nc1ccccc1C(F)(F)F)OCCOc1ccc(Br)cc1
T/C (endpoint: mean survival time, dose: 100.0 mg/kg/injection, schedule: Q01DX009 (ip), vehicle: Klucel (hydroxypropylcellulose) (HPC)): 100 % of control | T/C (endpoint: mean survival time, dose: 200.0 mg/kg/injection, schedule: Q01DX009 (ip), vehicle: Klucel (hydroxypropylcellulose) (HPC)): 103 % of control | T/C (endpoint: mean survival time, dose: 400.0 mg/kg/injection, schedule: Q01DX009 (ip), vehicle: Klucel (hydroxypropylcellulose) (HPC)): 87 % of control

— PubChem BioAssay AID256 (DTP/NCI, 2004)
